Earlier results, collected in paper PMC4021529 (British Journal of Cancer, 2014).
Like-named read-outs stand apart in the source and are kept apart here.

System: advanced solid tumours
Settings: phase I trial, advanced solid malignancies, cited from earlier work

For COc1ccc(S(=O)(=O)N(C(C)=O)c2ccccc2/C=C/c2cc[n+]([O-])cc2)cc1 [HMN-214], the objective responses (ref Garland et al, 2006) is given as “no objective responses”.
For C[C@@H](Oc1cc(-n2cnc3ccc(CN4CCN(C)CC4)cc32)sc1C(N)=O)c1ccccc1C(F)(F)F [GSK461364], the objective responses (ref Olmos et al, 2011) is listed as “no objective responses”.
